18 molecules from patent US20240109900A1, “AZABICYCLIC SHP2 INHIBITORS” (IRBM S.P.A., priority 2021, published 2024) can be followed below.

Read-outs that look alike come from different tables or passages of the source. Bounds are passed on as bounds.

Assay [1] deals with SHP-2 enzyme (Met1-Leu525) (Homo sapiens (Human), UniProt Q06124). Description: SHP2 inhibition enzymatic assay. Format: biochemical. Particulars: 75 μM DiFMUP substrate. In short, it runs like this: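 SHP-2 (Met1-Leu525), 0.5 nM, activated with 500 nM IRS1 bis-phosphopeptide, preincubated 30 min with compounds in HEPES pH 7.2 buffer with 5 mM DTT. 75 μM DiFMUP added for 30 min at room temperature, stopped with bpV; fluorescence read. IC50 from four-parameter logistic fit of % inhibition.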
Chain of SHP-2 enzyme (Met1-Leu525) (Q06124 1-525): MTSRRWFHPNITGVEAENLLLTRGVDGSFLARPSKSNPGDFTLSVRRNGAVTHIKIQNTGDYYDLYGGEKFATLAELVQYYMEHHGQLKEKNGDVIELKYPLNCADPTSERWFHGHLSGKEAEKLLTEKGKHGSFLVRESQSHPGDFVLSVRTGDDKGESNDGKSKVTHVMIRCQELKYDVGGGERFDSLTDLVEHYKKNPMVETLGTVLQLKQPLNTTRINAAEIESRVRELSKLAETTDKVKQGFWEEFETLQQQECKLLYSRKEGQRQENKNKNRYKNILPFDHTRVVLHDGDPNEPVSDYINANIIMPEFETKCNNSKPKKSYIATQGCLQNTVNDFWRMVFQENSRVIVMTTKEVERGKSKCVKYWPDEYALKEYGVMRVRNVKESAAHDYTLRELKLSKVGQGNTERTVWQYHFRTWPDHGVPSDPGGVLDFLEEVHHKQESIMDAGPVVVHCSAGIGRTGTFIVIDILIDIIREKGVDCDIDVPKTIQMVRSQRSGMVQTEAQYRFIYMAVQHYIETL

Assay [2] has as its system ERK phosphorylation in KYSE-520 cells. Description: Phospho-ERK cellular assay. Format: cell-based. Particulars: read-out: PERK IC50. The method in brief: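 TR-FRET read-out of ERK1/2 Thr202/Tyr204 phosphorylation was taken after overnight antibody incubation at room temperature. Before that, KYSE-520 cells were treated 2 h at 37 °C with compound dilutions and lysed 30 min. Percent inhibition relative to vehicle and cell-free wells was fitted four-parametrically to give IC50.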

[3] abbreviates: 0.5 nM SHP-2 activated by 500 nM IRS1 peptide, read-out: SHP2wt-IC50.
Setting [4] is: Homo sapiens, KYSE-520, 2 h, KYSE-520 cells, 2 h at 37° C., phospho-ERK1/2 (Thr202/Tyr204) TR-FRET.
The mark [5] stands for this setting: KYSE-520 cells, 2 h at 37° C., phospho-ERK1/2 (Thr202/Tyr204) TR-FRET.

For the molecule `NC[C@]1(c2ccccc2)[C@@H]2CN(c3cnc4c(-c5ccc(F)c6ncccc56)n[nH]c4n3)C[C@@H]21` [Example 510, ((1R,5S,6s)-3-(3-(8-fluoroquinolin-5-yl)-1H-pyrazolo[3,4-b]pyrazin-6-yl)-6-phenyl-3-azabicyclo[3.1.0]hexan-6-yl)methanamine], the half-maximal inhibitory concentration (IC50) in assay [1] (setting [3]) is less than 500 nM; in assay [2] (setting [4]), less than 1000 nM.
Regarding `NC[C@]1(c2ccccc2F)[C@@H]2CCN(c3cnc4c(-c5ccc(OS(=O)(=O)F)c6ncccc56)n[nH]c4n3)C[C@@H]21` [Example 449, 5-(6-((1S,6R,7R)-7-(aminomethyl)-7-(2-fluorophenyl)-3-azabicyclo[4.1.0]heptan-3-yl)-1H-pyrazolo[3,4-b]pyrazin-3-yl)quinolin-8-yl sulfurofluoridate], the IC50 was less than 500 nM in assay [1] (SHP2wt-IC50, 0.5 nM SHP-2 activated by 500 nM IRS1 peptide) and less than 1000 nM in assay [2] (Homo sapiens, KYSE-520, 2 h).
Take `COc1cccc(-c2n[nH]c3nc(N4CCC5C(C4)C5(CN)c4nc(C)cs4)cnc23)c1Cl` (stereo not drawn) [Example 87, (3-(3-(2-chloro-3-methoxyphenyl)-1H-pyrazolo[3,4-b]pyrazin-6-yl)-7-(4-methylthiazol-2-yl)-3-azabicyclo[4.1.0]heptan-7-yl)methanamine]: the IC50 was less than 500 nM in assay [1] (setting [3]) and less than 1000 nM in assay [2] (setting [4]).
Consider `Cc1csc(C2(CN)C3CCN(c4cnc5c(-c6cccc(F)c6F)n[nH]c5n4)CC32)n1` (stereo not drawn) [Example 86, (3-(3-(2,3-difluorophenyl)-1H-pyrazolo[3,4-b]pyrazin-6-yl)-7-(4-methylthiazol-2-yl)-3-azabicyclo[4.1.0]heptan-7-yl)methanamine], for which the IC50 in assay [1] (setting [3]) is less than 500 nM; in assay [2] (setting [4]) it was less than 1000 nM.
For `Cn1cc2c(Cl)c(-c3n[nH]c4nc(N5C[C@@H]6[C@H](C5)[C@@]6(CN)c5nc(Cl)cs5)cnc34)ccc2n1` [Example 487, ((1R,5S,6r)-3-(3-(4-chloro-2-methyl-2H-indazol-5-yl)-1H-pyrazolo[3,4-b]pyrazin-6-yl)-6-(4-chlorothiazol-2-yl)-3-azabicyclo[3.1.0]hexan-6-yl)methanamine], the values for the IC50 in assay [1] (setting [3]) and in assay [2] (setting [4]) were less than 500 nM and less than 1000 nM, respectively.
Regarding `CC(O)c1ccc(-c2n[nH]c3nc(N4CC[C@@H]5[C@H](C4)[C@@]5(CN)c4ccccc4F)cnc23)c2cccnc12` (stereo partly drawn) [Example 142, 1-(5-(6-((1S,6R,7R)-7-(aminomethyl)-7-(2-fluorophenyl)-3-azabicyclo[4.1.0]heptan-3-yl)-1H-pyrazolo[3,4-b]pyrazin-3-yl)quinolin-8-yl)ethan-1-ol], the half-inhibitory concentration (IC50) in assay [1] (setting [3]) is less than 500 nM; in assay [2] (setting [4]), less than 1000 nM.
Regarding `NC[C@]1(c2ncccc2F)[C@@H]2CCN(c3cnc4c(-c5cccn6nccc56)n[nH]c4n3)C[C@@H]21` [Example 140, ((1S,6R,7S)-7-(3-fluoropyridin-2-yl)-3-(3-(pyrazolo[1,5-a]pyridin-4-yl)-1H-pyrazolo[3,4-b]pyrazin-6-yl)-3-azabicyclo[4.1.0]heptan-7-yl)methanamine], the IC50 in assay [1] (setting [3]) was less than 500 nM; in assay [2] (setting [4]) it was less than 1000 nM.
As for `NCC1(c2ccccn2)C2CCN(c3cnc4c(-c5cccc(Cl)c5Cl)n[nH]c4n3)CC21` (stereo not drawn) [Example 82, (3-(3-(2,3-dichlorophenyl)-1H-pyrazolo[3,4-b]pyrazin-6-yl)-7-(pyridin-2-yl)-3-azabicyclo [4.1.0]heptan-7-yl)methanamine], the 50% inhibitory concentration (IC50) in assay [1] (setting [3]) is less than 500 nM; in assay [2] (setting [4]) it was less than 1000 nM.
Consider `COc1ncccc1-c1n[nH]c2nc(N3CCC4C(C3)C4(CN)c3cc(C)on3)cnc12` (stereo not drawn) [Example 28, (3-(3-(2-methoxypyridin-3-yl)-1H-pyrazolo[3,4-b]pyrazin-6-yl)-7-(5-methylisoxazol-3-yl)-3-azabicyclo[4.1.0]heptan-7-yl)methanamine], for which the half-inhibitory concentration (IC50) is less than 500 nM in assay [1] (setting [3]) and greater than 5000 nM in assay [2] (setting [4]).
On to `Cn1ncc2ccc(-c3n[nH]c4nc(N5CC[C@@H]6[C@H](C5)[C@@]6(CN)c5ccccc5F)cnc34)c(Cl)c21` [Example 364, ((1S,6R,7R)-3-(3-(7-chloro-1-methyl-1H-indazol-6-yl)-1H-pyrazolo[3,4-b]pyrazin-6-yl)-7-(2-fluorophenyl)-3-azabicyclo[4.1.0]heptan-7-yl)methanamine], for which the values for the IC50 in assay [1] (setting [3]) and in assay [2] (setting [4]) were less than 500 nM and less than 1000 nM, respectively.
The matching figures for `COc1ccc(-c2n[nH]c3nc(N4CC[C@@H]5[C@H](C4)[C@@]5(CN)c4ccccc4F)cnc23)nc1N` [Example 214, 6-(6-((1S,6R,7R)-7-(aminomethyl)-7-(2-fluorophenyl)-3-azabicyclo[4.1.0]heptan-3-yl)-1H-pyrazolo[3,4-b]pyrazin-3-yl)-3-methoxypyridin-2-amine]: less than 500 nM and greater than 5000 nM.
`Cc1nc(N2CC[C@@H]3[C@H](C2)[C@@]3(CN)c2cc(F)ccc2F)cc(=O)n1-c1cccc(Cl)c1Cl` [Example 412, 6-((1S,6R,7R)-7-(aminomethyl)-7-(2,5-difluorophenyl)-3-azabicyclo[4.1.0]heptan-3-yl)-3-(2,3-dichlorophenyl)-2-methylpyrimidin-4(3H)-one]: the results for the concentration for half-maximal inhibition (IC50) in assay [1] (setting [3]) and in assay [2] (setting [5]) were less than 500 nM and less than 1000 nM, respectively.
For the molecule `Cc1c(-c2c[nH]c3nc(N4CC[C@@H]5[C@H](C4)[C@@]5(CN)c4ccccc4F)cnc23)ccc2nn(C)cc12` [Example 157, ((1S,6R,7R)-3-(7-(2,4-dimethyl-2H-indazol-5-yl)-5H-pyrrolo[2,3-b]pyrazin-3-yl)-7-(2-fluorophenyl)-3-azabicyclo[4.1.0]heptan-7-yl)methanamine], the figures for the IC50 in assay [1] (setting [3]) and in assay [2] (setting [4]) were less than 500 nM and less than 1000 nM, respectively.
The matching figures for `N#Cc1ccc(-c2n[nH]c3nc(N4CC[C@@H]5[C@H](C4)[C@@]5(CN)c4ccccc4F)cnc23)c(Cl)c1` [Example 245, 4-(6-((1S,6R,7R)-7-(aminomethyl)-7-(2-fluorophenyl)-3-azabicyclo[4.1.0]heptan-3-yl)-1H-pyrazolo[3,4-b]pyrazin-3-yl)-3-chlorobenzonitrile]: less than 500 nM and less than 1000 nM.
As for `NC[C@]1(c2ccccc2F)[C@@H]2CCN(c3cnc4c(-c5ccnc(F)c5Cl)n[nH]c4n3)C[C@@H]21` [Example 509, ((1S,6R,7R)-3-(3-(3-chloro-2-fluoropyridin-4-yl)-1H-pyrazolo[3,4-b]pyrazin-6-yl)-7-(2-fluorophenyl)-3-azabicyclo[4.1.0]heptan-7-yl)methanamine], the results for the IC50 in assay [1] (setting [3]) and in assay [2] (setting [4]) were less than 500 nM and less than 1000 nM, respectively.
As to `NC[C@]1(c2ccccc2F)[C@@H]2CCN(c3cnc4c(-c5ccncc5Cl)n[nH]c4n3)C[C@@H]21` [Example 176, ((1S,6R,7R)-3-(3-(3-chloropyridin-4-yl)-1H-pyrazolo[3,4-b]pyrazin-6-yl)-7-(2-fluorophenyl)-3-azabicyclo[4.1.0]heptan-7-yl)methanamine], the results for the IC50 in assay [1] (setting [3]) and in assay [2] (setting [4]) were less than 500 nM and less than 1000 nM, respectively.
With `COc1nccc(-c2n[nH]c3nc(N4C[C@@H]5[C@H](C4)C5(CN)c4nc(C)cs4)cnc23)c1Cl` (stereo partly drawn) [Example 476], the figures for the concentration for half-maximal inhibition (IC50) in assay [1] (setting [3]) and in assay [2] (setting [5]) were less than 500 nM and less than 1000 nM, respectively.
Turning to `NC[C@]1(c2ccccc2F)[C@@H]2CCN(c3cnc4c(-c5ccc6c(c5)NC(=O)C6)n[nH]c4n3)C[C@@H]21` [Example 233, 6-(6-((1S,6R,7R)-7-(aminomethyl)-7-(2-fluorophenyl)-3-azabicyclo[4.1.0]heptan-3-yl)-1H-pyrazolo[3,4-b]pyrazin-3-yl)indolin-2-one], the values for the IC50 in assay [1] (setting [3]) and in assay [2] (setting [4]) were less than 500 nM and less than 1000 nM, respectively.
